The values that follow come from paper PMC6145916, “Interaction of mitochondrial fission factor with dynamin related protein 1 governs physiological mitochondrial function in vivo” (Scientific Reports, 2018).

Where no end group is shown, it is not given here.

The test system of assay [1] is neuroblastoma SH-SY5Y cells. The assay is described as follows: Mitochondrial morphology (Tom20 immunofluorescence), SH-SY5Y. In kind it is cell-based, human. The method, then: Represented Western blot is cropped from a full blot shown in the Expanded Western Blots section of the Supplementary Information. […] Hoechst 33342 is shown in blue and Tom20 in green (n = 3, 10 images each). Below, quantification of the form factor (degree of branching) and major axis length (length of mitochondria). At least 6,000 mitochondrial fragments were measured for each condition. Mitochondrial reactive oxygen species (ROS) production (MitoSox Red) (c) and mitochondrial membrane potential (TMRM) (d) after overnight treatment with indicated concentrations of peptide or FCCP. Data are from 3 independent experiments per condition normalized to the average no peptide value. (e) Relative mitochondrial ROS (MitoSox Red) signal in GFP positive cells expressing full-length or alanine-substituted P259 at indicated amino acids after two days of transfection. Values are normalized to a GFP empty vector (n = 3, with 3 replicates). […] Data are mean ± s.e. […]
Cells were fixed onto Permanox plastic slides with 4% paraformaldehyde in PBS for 10 minutes at room temperature. Cells were permeabilized in 0.1% Triton X-100 and 1% normal goat serum (blocking buffer) for one hour at room temperature. Permeabilized cells were incubated overnight with primary anti-Tom20 antibody (Santa Cruze Biotech, sc-11415, 1:250 dilution) in a humidified chamber. Slides were subsequently incubated with FITC-conjugated goat anti-rabbit IgG for two hours at room temperature in a light-shielding humidified chamber. Cells were washed with blocking buffer and stained with Hoechst 33342 (Invitrogen, OR, USA, […]). Coverslips were mounted with a Slowfade antifade solution (Invitrogen, OR, USA). Images were acquired using an LSM 700 confocal laser-s canning microsc ope equipped with a Plan Apochromat 63x/1.4 NA oil-immersion objective (Zeiss).
Mitochondrial morphology analysis
High-throughput image analysis of mitochondrial morphology was performed using MATLAB with the Image Processing toolkit. Background illumination, obtained by morphological opening of the image, was subtracted from the original image. The image was then passed through a top - hat transformation to highlight objects from the background followed by a pixel-wis e adaptive low-pas s Wiener filter to remove noise. A 90th percentile threshold was used to convert the image to a binary image. Erroneously large and small objects were removed from the image and morphological features were extracted from the binary objects. Major axis length is defined as th e length of the longest line that can be drawn through a binary object while the minor axis length is defined as the length of the shortest line. The aspect ratio is defined by the major axis length divided by the minor axis length. […]

The subject of assay [2] is SH-SY5Y cells. Description: Mitochondrial membrane potential (TMRM), SH-SY5Y. It is filed as cell-based, human. The note with it: overnight treatment, normalized to no peptide; 3 independent experiments. The protocol: Represented Western blot is cropped from a full blot shown in the Expanded Western Blots section of the Supplementary Information. […] Hoechst 33342 is shown in blue and Tom20 in green (n = 3, 10 images each). Below, quantification of the form factor (degree of branching) and major axis length (length of mitochondria). At least 6,000 mitochondrial fragments were measured for each condition. Mitochondrial reactive oxygen species (ROS) production (MitoSox Red) (c) and mitochondrial membrane potential (TMRM) (d) after overnight treatment with indicated concentrations of peptide or FCCP. Data are from 3 independent experiments per condition normalized to the average no peptide value. (e) Relative mitochondrial ROS (MitoSox Red) signal in GFP positive cells expressing full-length or alanine-substituted P259 at indicated amino acids after two days of transfection. Values are normalized to a GFP empty vector (n = 3, with 3 replicates). […] Data are mean ± s.e.
Following treatment, cells were washed with treatment media.
The Cy5 filter was used to autofocus on the mitochondria plane. […] MitoROS was calculated as the average MitoSox signal per cell. The mitochondrial membrane potential was calculated as the average TMRM signal in the mitochondrial mask. […]
calculated as the average MitoSox signal per cell. […]

[3] abbreviates: 4 µM TAT-P259, 30-minute treatment, vs TAT, n = 3.

On to “YGRKKRRQRRRGSGIIQLPEIVVV-NH2 (C-terminus assumed) [P259]”, for which, in assay [1] (setting [3]), the “form factor (degree of branching)” value was “higher form factors” and the major axis length entry is reported as “increased major axis lengths”. The mitochondrial morphology result in assay [1] (4 µM TAT-P259 or 10 µM Mdivi-1, 30-minute treatment, n = 3, 10 images each) is “more elongated and branched mitochondria”. Further, in assay [2], the mitochondrial membrane potential result was “mitochondrial depolarization”.
